Experimental data: US20160015033A1, “COMPOUNDS DERIVED FROM HERBICIDAL CARBOXYLIC ACIDS AND TETRAALKYLAMMONIUM OR (ARYLALKYL)TRIALKYLAMMONIUM HYDROXIDES” (DOW AGROSCIENCES LLC, priority 2014, published 2016)

Tests used:
[1] = system: Broadleaf Dock Rumex obtusifolia; test: Post-emergence greenhouse herbicide evaluation, Broadleaf Dock; format: in vivo; settings: 560 g ae/ha, 14 days after application, visual injury 0 to 100% vs untreated control
Text: (§1) A peat based potting soil, Metro-mix 360, was used as the soil media for this test. Metro-mix is a growing medium consisting of 35 to 45% specially processed Coconut Coir Pith, 10 to 20% horticultural grade vermiculite, 15 to 25% processed Ash Bark, 20 to 30% choice Canadian Sphagnum Peat Moss and proprietary nutrients and other ingredients. Several seeds of each species were to planted in 10 cm square pots and top watered twice daily. Plant material was propagated in the greenhouse at a constant temperature of 26 to 28° C. and 50 to 60% relative humidity. Natural light was supplemented with 1000-watt metal halide overhead lamps with an average illumination of 500 μE m^−2 s^−1 photosynthetic active radiation (PAR). Day length was 16 hours. Plant material was top-watered prior to treatment and sub-irrigated after treatment. […] The growth stage of the various weed species ranged from 2 to 4 leaf. Treatments were replicated 3 times. Plants were returned to the greenhouse after treatment and sub-watered throughout the duration of the to experiment. Plant material was fertilized twice weekly with Hoagland's fertilizer solution. Percent visual injury assessments were made on a scale of 0 to 100% as compared to the untreated control plants (where 0 is equal to no injury and 100 is equal to complete death of the plant).

Kochia Kochia scoparia = test: Post-emergence greenhouse herbicide evaluation, Kochia; format: in vivo; settings: 560 g ae/ha, 14 days after application, visual injury 0 to 100% vs untreated control
Text: as §1

[2] = system: grapes (Vitis labrusca L.); test: Volatility evaluation: injury to grapes from vapor exposure; settings: wheat sprayed at 11200 g ae/ha, 24 hour vapor exposure at 40° C., evaluated 7 days after exposure
Text: Four pots of wheat (Triticum aestivum L.) grown in 4 inch square pots were sprayed at 11200 g ae/ha with each of the different forms of 2,4-D. Treatments were applied with a tracksprayer manufactured by Allen Machine Works. The sprayer utilized an 8002E spray nozzle, spray pressure of 262 kPa pressure and speed of 1.5 mph (2.4 km/h) to deliver 187 L/Ha. The nozzle height was 46 cm above the plant canopy. The growth stage of the wheat was 1 to 2 leaf. The wheat plants were allowed to thoroughly dry to ensure that none of the spray solution was present when they were moved into a clean pot flat. A known sensitive species, grapes (Vitis labrusca L.) were placed at the opposite end of the flat. All of the pots were covered with a humidome with small ½ inch (1.27 cm) diameter holes cut into the end where the wheat was placed and a small box fan powered with a battery in the other end to pull air across the treated wheat plants and over the top of grapes. Plants were placed into a growth chamber with the temperature set at 40° C. with a 14 hour day and a 10 hour night cycle. A 24 hour exposure period was used after which the sensitive plants were then removed and placed in the greenhouse and evaluated for injury from vapor exposure to the treatments.

| Compound | % Control Broadleaf Dock Rumex obtusifolia [1] [%] | % Control Kochia Kochia scoparia (Kochia Kochia scoparia) [%] | % Injury to grapes from vapor exposure [2] [%] |
| --- | --- | --- | --- |
| CC[N+](CC)(CC)CC.O=C([O-])COc1ccc(Cl)cc1Cl [Compound 1b] | 79 | 89 | 0 |
| COc1c(Cl)ccc(Cl)c1C(=O)[O-].C[N+](C)(C)C [Compound 4a] | – | – | 12 |
| CCC[N+](CCC)(CCC)CCC.O=C([O-])COc1nc(Cl)c(Cl)cc1Cl [Compound 2c] | 79 | 95 | – |
| C[N+](C)(C)C.O=C([O-])COc1ccc(Cl)cc1Cl [Compound 1a] | 77 | 83 | – |
| CC[N+](CC)(CC)CC.O=C([O-])COc1nc(Cl)c(Cl)cc1Cl [Compound 2b] | 79 | 88 | 6 |
| CCN(CC)CC.O=C(O)COc1nc(Cl)c(Cl)cc1Cl [Triclopyr triethylamine (TEA), Triclopyr triethylamine, reference compound] | 81 | 91 | 57 |
| CNC.O=C(O)COc1ccc(Cl)cc1Cl [2,4-D dimethylamine (DMA), 2,4-D dimethylamine, reference compound] | 77 | 86 | 78 |
| CCCCOCCOC(=O)COc1ccc(Cl)cc1Cl [2,-4-D butoxyethylester (BEE), 2,-4-D butoxyethylester] | – | – | 100 |
| C[N+](C)(C)C.O=C([O-])COc1nc(Cl)c(Cl)cc1Cl [Compound 2a] | 85 | 79 | – |
| CCC[N+](CCC)(CCC)CCC.O=C([O-])COc1ccc(Cl)cc1Cl [Compound 1c] | 73 | 83 | – |
| Dicamba DMA | – | – | 70 |
| C[N+](C)(C)CCO.O=C([O-])COc1ccc(Cl)cc1Cl [Compound 1e] | 68 | 86 | – |
